For data set [1], the system named is U2932. The data set can be described thus: Cytotoxicity against human U2932 cells assessed as inhibition of cell growth measured after 72 hrs by CCK-8 assay. Type of data set: functional, cell-based. The note with it: U2932, 72 h. For orientation: Formazan colour is commonly taken as a measure of viable cells.
Data set [2] deals with CDK9/cyclin T1 (Homo sapiens) (UniProt O60563+P50750). The experiment in a line: Induction of CDK9/CyclinT1 degradation in human U2932 cells at 100 nM measured after 24 hrs by immunoblotting analysis. Type of data set: cell-based.
Data set [3] addresses Cyclin-dependent kinase 9 (Homo sapiens) (UniProt P50750). The experiment in a line: Induction of CDK9 55 kDa degradation in human U2932 cells assessed as maximal efficacy at 1 to 1000 nM by immunoblotting analysis relative to control. Type of data set: cell-based. The following applies: dose 1-1000 nM. (In western blotting, separated proteins are transferred to a membrane and probed.)

Data set [4] deals with Cyclin-dependent kinase 1 (Homo sapiens) (UniProt P06493). The data set can be described thus: Induction of CDK1 degradation in human U2932 cells at 100 nM incubated for 24 hrs by immunoblotting analysis. In kind it is cell-based.
Chain of Cyclin-dependent kinase 1 (Homo sapiens) (P06493 whole entry, looked up): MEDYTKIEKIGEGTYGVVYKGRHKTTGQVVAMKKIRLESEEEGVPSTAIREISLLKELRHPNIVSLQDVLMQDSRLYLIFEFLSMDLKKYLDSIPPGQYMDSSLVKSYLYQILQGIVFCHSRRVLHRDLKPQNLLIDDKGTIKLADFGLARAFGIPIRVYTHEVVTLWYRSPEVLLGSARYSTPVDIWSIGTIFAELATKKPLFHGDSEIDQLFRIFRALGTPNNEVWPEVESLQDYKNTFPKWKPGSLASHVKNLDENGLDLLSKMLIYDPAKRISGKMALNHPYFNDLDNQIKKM
Data set [5] relates to HCT-8. The experiment in a line: Cytotoxicity against human HCT-8 cells assessed as inhibition of cell growth measured after 72 hrs by CCK-8 assay. In kind it is functional, cell-based.
The subject of data set [6] is U2932. The experiment in a line: Downregulation of RNAP2 phosphorylation at serine 5 residue in human U2932 cells at 10 to 1000 nM incubated for 6 hrs by immunoblotting analysis. Type of data set: functional, cell-based. The note with it: dose 10-1000 nM.
Data set [7] concerns MV4-11. The data set can be described thus: Downregulation of c-Myc protein level in human MV4-11 cells incubated for 6 hrs by RT-qPCR analysis. In kind it is functional, cell-based. The following applies: dose 10-1000 nM. (Quantitative PCR measures a nucleic acid by following its amplification.)
Data set [8] deals with U2932. The data set can be described thus: Induction of apoptosis in human U2932 cells assessed as early apoptotic cells at 1000 nM incubated for 24 hrs by AnnexinV-FITC/PI staining based flow cytometry analysis (reference value: 6.20%). In kind it is functional.
Data set [9] concerns the target Cyclin-dependent kinase 9 (Homo sapiens) (UniProt P50750). The experiment in a line: Induction of CDK9 55 kDa degradation in human U2932 cells at 500 nM incubated for 12 hrs in presence of SNS-032 by immunoblotting analysis. Type of data set: cell-based.
The target is the same in data set [10]. The data set can be described thus: Induction of CDK9 degradation in LC3B knockout HEK293T cells at 100 nM incubated for 24 hrs by immunoblotting analysis. Type of data set: cell-based.
The nature of data set [11]: Half life in CD-1 mouse at 1 mg/kg, iv measured after 24 hrs by LC-MS/MS analysis. In kind it is ADME, organism-based. The following applies: in vivo.
A short description of data set [12]: Tmax in CD-1 mouse at 5 mg/kg, ip measured after 24 hrs by LC-MS/MS analysis. Type of data set: ADME, organism-based. The note with it: in vivo.
A short description of data set [13]: AUC(0 to t) in CD-1 mouse at 5 mg/kg, ip measured after 24 hrs by LC-MS/MS analysis. Type of data set: ADME, organism-based. Set-up: dose 5 mg/kg, time 24 hrs, route ip. The following applies: in vivo.
Data set [14] is described as follows: Observed MRTinfinity in CD-1 mouse at 5 mg/kg, ip measured after 24 hrs by LC-MS/MS analysis. The following applies: in vivo. In kind it is ADME, organism-based.
Data set [15] in a line: Oral bioavailability in CD-1 mouse at 5 mg/kg measured after 24 hrs by LC-MS/MS analysis. Type of data set: ADME, organism-based. The following applies: in vivo.
The subject of data set [16] is MV4-11. The data set can be described thus: Antitumor activity against human MV4-11 cells xenografted in mouse assessed as reduction in tumor growth at 5 mg/kg, ip qd measured after 15 days. Type of data set: functional, organism-based. The note with it: time 15.0 day.
Data set [17] has as its system MV4-11. The data set can be described thus: Antitumor activity against human MV4-11 cells xenografted in mouse assessed as tumor growth inhibition at 5 mg/kg, ip qd measured after 15 days. Type of data set: functional. The note with it: MV4-11, 360 h, time 15 day, read-out: TGI.
Data set [18] in a line: Toxicity in mouse xenografted with human MV4-11 cells assessed as change in body weight at 5 mg/kg, ip qd measured after 15 days. In kind it is organism-based. The following applies: in vivo, 360 h, time 15 day.
Data set [19] relates to MV4-11. The experiment in a line: Antitumor activity against human MV4-11 cells xenografted in mouse assessed as reduction in CDK9 level in tumor at 5 mg/kg, ip qd measured after 15 days by immunoblotting analysis. Type of data set: functional, organism-based. The note with it: time 15.0 day.
Data set [20] deals with MV4-11. The experiment in a line: Antitumor activity against human MV4-11 cells xenografted in mouse assessed as reduction in c-Myc level in tumor at 5 mg/kg, ip qd measured after 15 days by immunoblotting analysis. The following applies: time 15.0 day. Type of data set: functional, organism-based.
Data set [21] deals with MV4-11. The experiment in a line: Antitumor activity against human MV4-11 cells xenografted in mouse assessed as reduction in Mcl level in tumor at 5 mg/kg, ip qd measured after 15 days by immunoblotting analysis. Type of data set: functional, organism-based. The note with it: time 15.0 day.

Two molecules from ChEMBL document CHEMBL5365461, “Degradation of Cyclin-Dependent Kinase 9/Cyclin T1 by Optimized Microtubule-Associated Protein 1 Light Chain 3 Beta-Recruiting Coumarin Analogs” (J Med Chem, 2023) can be followed below.

The source made the active and inactive calls. The calls are words filed in the database; no cut-off is given here.

Chain of Cyclin-dependent kinase 9 (Homo sapiens) (P50750 whole entry): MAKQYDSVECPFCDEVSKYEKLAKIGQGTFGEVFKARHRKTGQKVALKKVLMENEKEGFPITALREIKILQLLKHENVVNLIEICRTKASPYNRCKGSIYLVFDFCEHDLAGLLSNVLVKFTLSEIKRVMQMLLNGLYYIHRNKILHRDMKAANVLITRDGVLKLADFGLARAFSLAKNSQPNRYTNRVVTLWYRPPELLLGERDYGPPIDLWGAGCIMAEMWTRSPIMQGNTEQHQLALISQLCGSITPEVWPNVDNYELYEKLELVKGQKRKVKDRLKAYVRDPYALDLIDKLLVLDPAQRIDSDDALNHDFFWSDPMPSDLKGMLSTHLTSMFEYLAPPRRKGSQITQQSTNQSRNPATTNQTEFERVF

The term IC50 denotes the concentration needed to halve the response being measured. The Emax is the maximal effect, on the per cent scale that the assay sets. As a reminder, the half-life is the time in which the quantity being followed falls by half. Lower therefore signals rapid decline. Broadly, the Tmax is the time at which the peak concentration occurs. By AUC(0-t) is commonly meant the area under the concentration-time curve up to a stated or last time point. Low values mean low exposure, high ones high exposure. One may read the MRT inf as a mean duration of stay, worked out from the concentration-time curve. What is called bioavailability is the share of a dose that reaches the circulation, judged against a reference dose that is usually intravenous. A high value points to much systemic uptake. Regarding `Cc1cc(=O)oc2cc(OCCCN3CCC(C(=O)Nc4ncc(SCc5ncc(C(C)(C)C)o5)s4)CC3)cc(O)c12`, in [1], the IC50 worked out at 0.045 µM. For the same molecule, the outcome in data set [2], in data set [4] and in data set [5] was Active. Further, in data set [3], the maximum response (Emax) was found to be 46%. The outcome in data set [6], in data set [9] and in data set [10] was inactive. Moreover, the Activity entry in [7] was “Dose-Dependent Effect”; in data set [8] it was 11.8%. This molecule also had a half-life in [11] of 1.03 h. For the same molecule, in data set [12], the time to peak (Tmax) was determined as 0.25 h. In data set [13], this molecule displayed an area under the curve AUC(0-t) at 24 h of 0.143 µg·h/mL. Moreover, the MRT inf in data set [14] was 3.84 h. In addition, the bioavailability in data set [15] was 24.6%.
As for `Cc1cc(=O)oc2cc(O)cc(OCCCCCN3CCC(C(=O)Nc4ncc(SCc5ncc(C(C)(C)C)o5)s4)CC3)c12`, the IC50 in data set [1] stood at 0.045 µM. Moreover, the Emax in data set [3] is 54.8%. Further, the result in [5], in data set [16], in data set [19], in data set [20] and in [21] was Active. In addition, the outcome in [6], in [9] and in [10] was inactive. Also, the results for the Activity result in data set [7], in [8] and in data set [18] were “Dose-Dependent Effect”, 15.2% and “Non-Toxic”, respectively. Further, the half-life in [11] is 1.97 h. The Tmax in [12] amounted to 0.25 h. In data set [13], this molecule registered an AUC(0-t) at 24 h of 0.156 µg·h/mL. Moreover, the mean residence time MRT inf in data set [14] worked out at 4.17 h. Moreover, in data set [15], the bioavailability worked out at 43.1%. Besides, the inhibition in vivo at 5 mg/kg in data set [17] was found to be 52%.
